Measured values: patent publication US3947411A, “Novel 1-aryl-2-arylalkyl-3-or-4-[4'-(substituted-alkyl)piperazino-1']butanols- 2-or-butenes-1, and methods of manufacture thereof” (Warner-Lambert Company, priority 1972, dated 1976)
Converted amounts (≈) assume the structure as drawn.

What was measured:
Solubility in water = format: physicochemical; settings: hydrochlorides or oxalates, read-out: solubilities (in water)
Outline: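 Water solubility given for the hydrochloride salts of most compounds and for the oxalate salts of a few.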

E. coli [1] = experiment: Minimum inhibitory concentration for bacteria, tube dilution, E. coli (Table V); format: cell-based; settings: Escherichia coli, 48 h, read-out: Minimum Inhibitory Concentration, E. coli
C. albicans [2] = experiment: Minimum inhibitory concentration for fungi in presence of serum, C. albicans (Table VI); format: cell-based; settings: Candida albicans; Sabouraud nutrient broth + 10% bovine serum, 28°C, 48 hours
A. niger [3] = experiment: Minimum inhibitory concentration for fungi in presence of serum, A. niger (Table VI); format: cell-based; settings: Aspergillus niger; Sabouraud nutrient broth + 10% bovine serum, 28°C, 48 hours
Candida albicans = experiment: Agar well inhibition zone test against fungi, Candida albicans (Table II); settings: quantity per well giving inhibition zone (500, 50, 5 μg tested); Sabouraud agar, 28°, 48 hours
Protocol: The efficacy of the compounds against fungi was tested as follows:
The test organisms, in this case the blastomycete Candida albicans and the mold Aspergillus niger, were inoculated onto Sabouraud agar plates by pouring a photometrically adjusted standard suspension of organisms on the plate. After inoculation, wells with a diameter of 5.0 mm were punched in the agar, and filled with 50 ul of the compound solution mentioned before. The quantity of compound applied thus amounted to 500 μg, 50 μg and 5 μg. After incubation at 28° for 48 hours, the quantity of compound was determined at which an inhibition of the organism's growth, in form of an inhibition zone around the corresponding well, was present.

Aspergillus niger = experiment: Agar well inhibition zone test against fungi, Aspergillus niger (Table II); settings: quantity per well giving inhibition zone (500, 50, 5 μg tested); Sabouraud agar, 28°, 48 hours
Escherichia coli = experiment: Agar well inhibition zone test against bacteria, Escherichia coli (Table III); settings: quantity per well giving inhibition zone (500, 50, 5 μg tested); nutrient agar, 37°, 24 hours
Protocol: (§1) The efficacy of the compounds against bacteria was tested as follows:
(§2) The test organisms, in this case Staphylococcus aureus and Escherichia coli, were inoculated on nutrient agar as described in Example 12, wells were punched, and the solutions of the compounds were transferred to fill the wells. The quantity of compound in the wells amounted again to 500 μg, 50 μg and 5 μg.
(§3) After incubation a 37° for 24 hours the quantity of compound was determined at which an inhibition of the organism's growth, in the form of an inhibition zone around the corresponding well, occurred.

A. niger [4] = experiment: Minimum inhibitory concentration for fungi, tube dilution, A. niger (Table IV); settings: Aspergillus niger, 48 h, read-out: Minimum Inhibitory Concentration, A. niger
Protocol: (§4) A tube dilution series of the respective compound in Sabouraud nutrient broth, whose individual tubes contained concentrations of 1024 μg, 512 μg, 256 μg, 128 μg, 64 μg, 32 μg, 16 μg, 8 μg, 4 μg, 2 μg, 1.1 μg and 0.5 μg/ml, was prepared and inoculated with a photometrically standardized suspension of the test organisms or the spores thereof.

C. albicans [5] = experiment: Minimum inhibitory concentration for fungi, tube dilution, C. albicans (Table IV); settings: Candida albicans, 48 h, read-out: Minimum Inhibitory Concentration, C. albicans
Protocol: as §4

Staphylococcus aureus = experiment: Agar well inhibition zone test against bacteria, Staphylococcus aureus (Table III); settings: quantity per well giving inhibition zone (500, 50, 5 μg tested); nutrient agar, 37°, 24 hours
Protocol: as §1, §2, §3

Staph. aureus = experiment: Minimum inhibitory concentration for bacteria, tube dilution, Staph. aureus (Table V); settings: Staphylococcus aureus, 48 h, read-out: Minimum Inhibitory Concentration, Staph. aureus
Protocol: A tube dilution series of the respective compound in nutrient broth whose individual tubes contained concentrations of 1024 μg, 512 μg, 256 μg, 128 μg, 64 μg, 32 μg, 1 μg, 8 μg, 4 μg, 2 μg, 1.1 μg and 0.5 μg/ml was prepared and inoculated with a photometrically standardized suspension of the test organisms.

E. coli [6] = experiment: Minimum inhibitory concentration for bacteria in presence of serum, E. coli (Table VII); format: cell-based; settings: Escherichia coli; nutrient broth + 10% serum, 37°C, 48 hours
[7] = test system: Mycobacterium tuberculosis II 37 RV (typus humanus); experiment: Efficacy against Mycobacteria, Tb-broth dilution series (Table I); format: cell-based; settings: 504 h, Dubos Tb-broth + 10% bovine serum, 21 days, read-out: Minimum Inhibitory Concentration

Structure (SMILES) | solubility (Solubility in water) [mg/mL] | MIC (E. coli [1]) [µg/mL] | MIC (C. albicans [2]) [µg/mL] | MIC (A. niger [3]) [µg/mL] | Inhibition Area at μg, Cand. albicans (Candida albicans) [µg] | Inhibition Area at μg, Asp. niger (Aspergillus niger) [µg] | Inhibition Area at μg, E. coli (Escherichia coli) [µg] | MIC (A. niger [4]) [µg/mL] | MIC (C. albicans [5]) [µg/mL] | Inhibition Area at μg, Staph. aureus (Staphylococcus aureus) [µg] | MIC (Staph. aureus) [µg/mL] | MIC (E. coli [6]) [µg/mL] | MIC [7] [µg/mL]
CCCCCCCCN1CCN(CCCCCCN2CCN(C(C)C(=Cc3ccccc3)Cc3ccccc3)CC2)CC1 (stereo not drawn) [LXII, 1-phenyl-2-benzyl-3-[4'-w-(4"-n-octyl-piperazino-1")-n-hexyl-piperazino-1']-butene-1] | 25 (≈ 42600 µM) | 1020 (≈ 1740 µM) | 1020 | 512 | 5 | 50 | 50 | < 0.5 | 2 (≈ 3.41 µM) | 5 | 16 (≈ 27.3 µM) |  | 
Clc1ccc(C=C(CCN2CCN(CCN3CCCCC3)CC2)Cc2ccc(Cl)cc2)cc1 [LXIII, 1-(p-chloro-phenyl)-2-(p-chlorobenzyl)-4-[4'-(β-piperidino-ethyl)-piperazino-1']-butene-1] | < 10 | 64 (≈ 132 µM) | 128 | 32 | 5 | 50 | 5 | < 0.5 | 32 (≈ 65.8 µM) | 5 | 8 (≈ 16.4 µM) |  | 
C(=C(CCN1CCN(CCN2CCCCC2)CC1)Cc1ccccc1)c1ccccc1 [LXIV] | 100 (≈ 239000 µM) | 256 (≈ 613 µM) | 128 | 8 | 50 | 5 | 5 | 8 (≈ 19.2 µM) | 8 (≈ 19.2 µM) | 5 | 8 (≈ 19.2 µM) |  | 
CC(C(=Cc1ccccc1Cl)Cc1ccccc1Cl)N1CCN(CCN2CCN(C)CC2)CC1 (stereo not drawn) [LXVI] | 100 (≈ 199000 µM) | 128 (≈ 255 µM) | 1020 | 128 | 5 | 5 | 50 | < 0.5 | 4 (≈ 7.98 µM) | 5 | 32 (≈ 63.8 µM) |  | 
CCCCCCCCNCCCCCCN1CCN(C(C)C(=Cc2ccccc2)Cc2ccccc2)CC1 (stereo not drawn) [XL, 1-phenyl-2-benzyl-3-[4'-(w-n-octyl-amino-n-hexyl)piperazino-1']-butene-1] | 10 (≈ 19300 µM) | 32 (≈ 61.8 µM) | 64 | 2 | 5 | 5 | 5 | < 0.5 | < 0.5 | 5 | < 0.5 | 1020 | 
CNCCCCCCN1CCN(C(C)C(=Cc2ccccc2)Cc2ccccc2)CC1 (stereo not drawn) [XLI, 1-phenyl-2-benzyl-3-[4'-(w-methyl-amino-n-hexyl)piperazino-1']-butene-1] | 100 (≈ 238000 µM) | 32 (≈ 76.3 µM) | 128 | 8 | 5 | 5 | 50 | 1 (≈ 2.38 µM) | 2 (≈ 4.77 µM) | 50 | 32 (≈ 76.3 µM) | 512 | 
CC(C(=Cc1ccc(Cl)cc1)Cc1ccc(Cl)cc1)N1CCN(CCN2CCN(C)CC2)CC1 (stereo not drawn) [XLII, 1-p-chloro-phenyl-2-p-chloro-benzyl-3-{4'-[β-(4"-methyl-piperazino-1")-ethyl]-piperazino-1'}-butene-1] | 100 (≈ 199000 µM) | 32 (≈ 63.8 µM) | 256 | 32 | 5 | 5 | 5 | < 0.5 | < 0.5 | 5 | 32 (≈ 63.8 µM) | 1020 | 
CCCCCCCC[N+](C)(C)CCN1CCN(C(C)C(=Cc2ccccc2)Cc2ccccc2)CC1 (stereo not drawn) [XLIII, Dimethyl-n-octyl-β-[4-(1'-phenyl-2'-benzylbutene-1'-yl-3')-piperazino-1]-ethyl-ammoniumbromide] | < 10 | 1 | 128 | 64 | 5 | 5 | 5 | < 0.5 | < 0.5 | 5 | < 0.5 | 128 | 
CC(N1CCN(CCO)CC1)C(O)(Cc1ccc(Cl)cc1)Cc1ccc(Cl)cc1 (stereo not drawn) [XLVII, 1-(p-Chloro-phenyl)-2-(p-chloro-benzyl)-3-[4'-(β-hydroxyethyl)-piperazino-1']-butanol-2] | 100 (≈ 229000 µM) |  | 256 | 64 | 5 | 5 | 500 | 32 (≈ 73.2 µM) | 32 (≈ 73.2 µM) | 5 | 4 (≈ 9.14 µM) | > 1020 | 
CC(N1CCN(C)CC1)C(O)(Cc1ccc(Cl)cc1)Cc1ccc(Cl)cc1 (stereo not drawn) [XLVIII, 1-p-chlorophenyl-2-p-chlorobenzyl-3-(4'-methyl-piperazino-1')-butanol-2] | 50 (≈ 123000 µM) | > 1020 | > 1020 | 256 | 50 | 50 | 50 | 4 (≈ 9.82 µM) | 8 (≈ 19.6 µM) | 50 | 128 (≈ 314 µM) |  | 
CC(N1CCN(CCN(C)Cc2ccccc2)CC1)C(O)(Cc1ccccc1)Cc1ccccc1 (stereo not drawn) [XV, 1-phenyl-2-benzyl-3-[4'-(β-N-methyl-N-benzylamino-ethyl)-piperazino-1']-butanol-2] | 100 (≈ 212000 µM) | > 1020 | 512 |  | 50 | 50 | 50 | 128 (≈ 271 µM) | 16 (≈ 33.9 µM) | 50 | > 1020 |  | 
CNCCN1CCN(C(C)C(=Cc2ccccc2)Cc2ccccc2)CC1 (stereo not drawn) [XXV, 1-phenyl-2-benzyl-3-[4'-(β-methylamino-ethyl)-piperazino-1']-butene-1] | 100 (≈ 275000 µM) | 64 (≈ 176 µM) | 256 | 64 | 5 | 5 | 50 | 8 (≈ 22 µM) | 64 (≈ 176 µM) | 5 | 64 (≈ 176 µM) | 512 | 10
CC(C(=Cc1ccccc1)Cc1ccccc1)N1CCN(CCN(C)C)CC1 (stereo not drawn) [XXVI, 1-phenyl-2-benzyl-3-[4'-(β-dimethylamino-ethyl)-piperazino-1']-butene-1] | 100 (≈ 265000 µM) | 128 (≈ 339 µM) | 16 | 32 | 5 | 5 | 50 | 4 (≈ 10.6 µM) | 8 (≈ 21.2 µM) | 50 | 128 (≈ 339 µM) |  | 
CC(C(=Cc1ccccc1)Cc1ccccc1)N1CCN(CCN2CCN(CCc3ccccc3)CC2)CC1 (stereo not drawn) [XXXIX, 1-phenyl-2-benzyl-3-{4'-[β-(4"-β-phenethylpiperazino-1")-ethyl]-piperazino-1'}-butene-1] | 50 (≈ 95600 µM) | > 1020 | 64 | 128 | 5 | 5 | 50 | 32 (≈ 61.2 µM) | 4 (≈ 7.65 µM) | 5 | 32 (≈ 61.2 µM) |  | 
